Measured values taken from paper PMC6769468, “Endogenous Neuropeptide Nocistatin Is a Direct Agonist of Acid-Sensing Ion Channels (ASIC1, ASIC2 and ASIC3)” (Biomolecules, 2019).
Ends that are not written are not given here.

Target: T1, rat ASIC3 (Rattus norvegicus, UniProt O35240)
T1 construct: expressed in transfected cells; host or cells: Xenopus laevis oocytes (injected)
T1 sequence (O35240 1-533): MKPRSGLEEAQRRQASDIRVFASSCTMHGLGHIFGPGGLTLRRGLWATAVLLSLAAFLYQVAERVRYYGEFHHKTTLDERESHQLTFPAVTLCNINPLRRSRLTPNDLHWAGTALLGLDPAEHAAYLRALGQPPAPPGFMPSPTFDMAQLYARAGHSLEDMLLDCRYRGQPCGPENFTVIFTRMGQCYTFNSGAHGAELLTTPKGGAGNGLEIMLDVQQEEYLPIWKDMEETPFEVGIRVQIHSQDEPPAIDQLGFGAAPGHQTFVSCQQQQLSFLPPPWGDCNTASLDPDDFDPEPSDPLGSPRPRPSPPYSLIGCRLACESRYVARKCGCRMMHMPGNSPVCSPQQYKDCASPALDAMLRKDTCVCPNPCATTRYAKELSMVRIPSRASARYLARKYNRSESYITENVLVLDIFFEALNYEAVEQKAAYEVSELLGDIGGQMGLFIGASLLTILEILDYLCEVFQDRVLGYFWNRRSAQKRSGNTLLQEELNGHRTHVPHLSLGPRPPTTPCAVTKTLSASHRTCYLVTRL
Assay: Whole-cell current activation, rat ASIC3 in X. laevis oocytes
Type: cell-based
Description: Oocytes expressed rASIC1a, rASIC1b, rASIC2a, and rASIC3 homomeric channels were prepared as described. Injected oocytes were kept for two–three days at 19 °C and then for up to seven days at 15 °C in ND-96 medium supplemented with gentamycin (50 μg·mL^−1) and containing (in mM): 96 NaCl, 2 KCl, 1.8 CaCl2, 1 MgCl2, and 10 HEPES titrated to pH 7.4 with NaOH. Electrophysiological recordings were performed using the GeneClamp500 amplifier (Axon Instruments, Inverurie, UK) at a holding potential of -50 mV. The data were filtered at 20 Hz and digitized at 100 Hz using the L780 AD converter (L-Card, Moscow, Russia). Microelectrodes were filled with 3 M KCl. The external bath solution was ND-96 with pH adjusted to 7.4/7.8 (10 mM HEPES) /8.5 (10 mM Tris). Nocistatin containing solutions were freshly prepared and buffered each experimental day in ND-96 bath solution (pH 7.4/7.8/8.5). Proton-activated currents through ASIC channels were elicited by application of ND-96, in which 10 mM of HEPES was substituted with 10 mM MES at pH 5.5/ 10 mM acetic acid at pH 4.5. […]
All data are presented as mean ± SEM. The significance of normalized data differences was determined with a non-parametric Kruskal-Wallis ANOVA test with the significance level * p < 0.05 and ** p < 0.01; ns, non-significant.

MPRVRSVVQARDAEPEADAEPVADEADEVEQKQLQ [rNS]
tmax greater than for protons by (1 mM rNS vs pH drop 7.4–5.5, slower activation): ~ 49%
τdes (desensitization time constant) (1 mM rNS, conditioning pH 7.4, mean ± S.E. from 4–7 measurements): 0.4 ± 0.1 s
